Experimental data taken from ChEMBL document CHEMBL3593236, “Cloning, characterization and anion inhibition studies of a new γ-carbonic anhydrase from the Antarctic bacterium Pseudoalteromonas haloplanktis” (Bioorg Med Chem, 2015).
pKi: −log10 of the molar value.

Molecular target: T1, Carbonic anhydrase (Methanosarcina thermophila, UniProt P40881)
T1 sequence (P40881 whole entry): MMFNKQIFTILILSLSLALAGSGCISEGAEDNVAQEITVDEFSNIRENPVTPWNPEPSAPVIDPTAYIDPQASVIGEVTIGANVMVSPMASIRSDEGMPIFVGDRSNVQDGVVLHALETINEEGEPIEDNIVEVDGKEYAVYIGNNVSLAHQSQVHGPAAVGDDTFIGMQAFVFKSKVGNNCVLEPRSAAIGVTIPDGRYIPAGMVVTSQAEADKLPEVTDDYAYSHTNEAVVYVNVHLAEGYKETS
Description: Inhibition of archaeon Methanosarcina thermophila gamma-CA after 15 mins by stopped-flow/Co2 hydration assay

Row | SMILES | pKi
1 | [Br-].[Na+] [SODIUM BROMIDE] | 0.80
2 | N#C[S-].[Na+] [THIOCYANATE SODIUM] | 2.15
